Experimental findings from ChEMBL document CHEMBL1149504, “Design and synthesis of substituted quinolines as novel and selective melanin concentrating hormone antagonists as anti-obesity agents” (Bioorg Med Chem Lett, 2006) are described below.

In test [1] the target is T1, 5-hydroxytryptamine receptor 2C (Homo sapiens, UniProt P28335).
T1 sequence (P28335 whole entry): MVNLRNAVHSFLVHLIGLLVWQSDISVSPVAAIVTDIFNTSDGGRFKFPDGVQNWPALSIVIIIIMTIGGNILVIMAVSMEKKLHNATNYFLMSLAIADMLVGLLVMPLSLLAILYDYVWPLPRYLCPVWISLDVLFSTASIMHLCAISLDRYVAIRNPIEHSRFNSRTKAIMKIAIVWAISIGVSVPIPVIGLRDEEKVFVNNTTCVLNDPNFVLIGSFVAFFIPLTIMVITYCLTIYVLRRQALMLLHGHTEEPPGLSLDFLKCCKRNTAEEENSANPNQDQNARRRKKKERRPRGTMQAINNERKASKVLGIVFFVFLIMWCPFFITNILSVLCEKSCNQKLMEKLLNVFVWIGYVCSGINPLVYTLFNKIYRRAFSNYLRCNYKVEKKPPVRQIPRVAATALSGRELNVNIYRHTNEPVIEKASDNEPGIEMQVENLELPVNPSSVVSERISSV
Kind of test: Displacement of [3H]mesulergine from 5HT2C receptor. For orientation: In a radioligand displacement assay an active substance lowers the binding of a labelled ligand.

The target of test [2] is Melanin-concentrating hormone receptor 1 (Homo sapiens, UniProt Q99705). Kind of test: Binding affinity to MCHR1 by radioligand binding assay.

Structures are written as SMILES. Where only a bound is given, the exact number is not on record here.

Sequence of Melanin-concentrating hormone receptor 1 (Q99705 whole entry): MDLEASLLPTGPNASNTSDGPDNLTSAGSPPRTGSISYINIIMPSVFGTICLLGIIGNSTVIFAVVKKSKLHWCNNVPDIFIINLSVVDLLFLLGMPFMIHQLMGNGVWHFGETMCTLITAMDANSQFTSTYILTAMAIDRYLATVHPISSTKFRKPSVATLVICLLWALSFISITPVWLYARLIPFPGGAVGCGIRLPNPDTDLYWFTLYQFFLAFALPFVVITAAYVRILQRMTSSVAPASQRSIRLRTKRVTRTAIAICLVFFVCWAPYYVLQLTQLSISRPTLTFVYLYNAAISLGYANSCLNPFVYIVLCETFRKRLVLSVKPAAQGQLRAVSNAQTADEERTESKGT

Usually IC50 stands for the point on the concentration scale where inhibition reaches its midpoint. The term Ki denotes a dissociation constant, usually derived from enzyme kinetics or from competition with a known ligand. High values mean weaker binding, low ones tighter binding. Turning to `O=C(NCc1cccc2cc(CN3CCOCC3)cnc12)c1ccc(-c2ccc(F)cc2)cc1`, the IC50 in test [1] stood at 7470 nM. The Ki in test [2] was 1410 nM.
Take `O=C(NCc1cccc2cc(CN3CCC(O)CC3)cnc12)c1ccc(-c2ccc(F)cc2)nc1`: the IC50 in test [1] came to 14600 nM. Also, the Ki in test [2] amounted to 803 nM.
`O=c1c2sc(-c3ccc(Cl)cc3)cc2ncn1Cc1cccc2cc(CN3CCC(O)CC3)cnc12` registered an IC50 in test [1] above 100000 nM. Also, the affinity in test [2], expressed as Ki, was 51 nM.
Turning to `O=C(NCc1cccc2cc(CN3CCC(O)CC3)cnc12)c1ccc(-c2ccc(F)cc2)cc1`, in test [1], the IC50 is 2810 nM. The Ki in test [2] is 195 nM.
For `CN(Cc1cccc2cc(CN3CCCCC3)cnc12)C(=O)c1ccc(-c2ccc(F)cc2)cc1` the same measures were 4190 nM and 31 nM.
In the case of `CCN(CC)Cc1cnc2c(CNC(=O)c3ccc(-c4ccc(F)cc4)nc3)cccc2c1`, in test [1], the IC50 is 14100 nM. The same compound displayed a Ki in test [2] of 310 nM.
Regarding `CN(C)Cc1cnc2c(Cn3cnc4cc(-c5ccc(Cl)cc5)sc4c3=O)cccc2c1`, the IC50 in test [1] was 1310 nM. This compound also had a Ki in test [2] of 197 nM.
With `CS(=O)(=O)C1CCN(Cc2cnc3c(CNC(=O)c4ccc(-c5ccc(F)cc5)cc4)cccc3c2)CC1`, in test [1], the IC50 was above 100000 nM. In addition, in test [2], the Ki was 310 nM.
In the same order, the values of `CS(=O)(=O)N1CCN(Cc2cnc3c(Cn4cnc5cc(-c6ccc(Cl)cc6)sc5c4=O)cccc3c2)CC1` are above 100000 nM and 773 nM.
For `O=C(NCc1cccc2cc(CN3CC[C@H](O)C3)cnc12)c1ccc(-c2ccc(F)cc2)cc1` the same measures were 3590 nM and 142 nM.
For `CN(CC(=O)N(C)C)Cc1cnc2c(Cn3cnc4cc(-c5ccc(Cl)cc5)sc4c3=O)cccc2c1` the same measures were above 100000 nM and 136 nM.
With `CCN(CC)Cc1cnc2c(Cn3cnc4cc(-c5ccc(Cl)cc5)sc4c3=O)cccc2c1`, the IC50 in test [1] is 25200 nM. In test [2], this compound showed an inhibition constant (Ki) of 126 nM.
In the case of `CN(C)Cc1cnc2c(CNC(=O)c3ccc(-c4ccc(F)cc4)nc3)cccc2c1`, in test [1], the IC50 worked out at 10300 nM. The affinity in test [2] corresponds to a Ki of 414 nM.
In the same order, the values of `O=C(NCc1cccc2cc(CN3CC[C@H](O)C3)cnc12)c1ccc(-c2ccc(F)cc2)nc1` are 16500 nM and 1150 nM.
For `CCN(CC)Cc1cnc2c(CNC(=O)c3ccc(-c4ccc(F)cc4)cc3)cccc2c1` the same measures were 4160 nM and 102 nM.
In the same order, the values of `CN1CCN(Cc2cnc3c(Cn4cnc5cc(-c6ccc(Cl)cc6)sc5c4=O)cccc3c2)CC1` are above 100000 nM and 110 nM.
`O=c1c2sc(-c3ccc(Cl)cc3)cc2ncn1Cc1cccc2cc(CN3CCCC3)cnc12`: the IC50 in test [1] was above 100000 nM. Moreover, in test [2], the Ki is 91 nM.
For `CN1CCN(Cc2cnc3c(CNC(=O)c4ccc(-c5ccc(F)cc5)nc4)cccc3c2)CC1` the same measures were 20200 nM and 3540 nM.
In the same order, the values of `O=C(NCc1cccc2cc(CN3CCOCC3)cnc12)c1ccc(-c2ccc(F)cc2)nc1` are above 100000 nM and 20100 nM.
